Results: US7223770B2, “Tocopherol-modified therapeutic drug compounds” (priority 2003, dated 2007)
Structures can show the parent of a compound that is named as a salt.

What was measured:
[1] = system: NCI-H460 (non-small cell lung); conditions: NCI-H460 (NSCLC); value reported by NCI; cited from earlier work
MCF-7 (breast) = conditions: value reported by NCI; cited from earlier work
HT-29 (colorectal) = conditions: HT29 (COLON); value reported by NCI; cited from earlier work
HCT-116 (colorectal) = conditions: HCT-116 (COLON); value reported by NCI; cited from earlier work
OVCAR-3 (ovarian) = conditions: value reported by NCI; cited from earlier work
HCT-15 (colorectal) = conditions: HCT-15 (COLON); value reported by NCI; cited from earlier work
[2] = rats, intravenous; literature value; cited from earlier work
HT-29 human tumor cells = experiment: HT-29 Human Tumor Xenograft anti-tumor activity; type: in vivo, Athymic mice
Description: HT-29 Human Tumor Xenograft. Athymic mice were subcutaneously implanted with 30–40 mg tumor fragments using 12-gauge trocar needles. A sufficient number of mice were implanted with fragments so tumors in narrow weight range (100–200 mg) were selected for the trial on staging day (SD). The animals selected with tumors in the proper size range were randomized into six groups of 10 animals and intravenously administered the following test compounds:
The tumor measurements were performed using a caliper (millimeters); the tumor volume was calculated based on the formula: (Length×width^2)/2=Volume (mm^3).

[3] = 15 mg/kg intravenous, q1dx5 (2 weeks)

Row | Compound | GI50 [1] | GI50 (MCF-7 (breast)) | GI50 (HT-29 (colorectal)) | GI50 (HCT-116 (colorectal)) | GI50 (OVCAR-3 (ovarian)) | GI50 (HCT-15 (colorectal)) | Clearance [2] | t1/2 (elimination) [2] | MRT [2] | Number of animals with no measurable tumor on Day 55 (HT-29 human tumor cells; [3]) | Tumor Growth Delay (T − C) (HT-29 human tumor cells; [3]) | Tumor Growth Inhibition (% T/C) (HT-29 human tumor cells; 15 mg/kg intravenous, q1dx5 (2 weeks), at Day 55) | Median tumor size (HT-29 human tumor cells; q1dx5, fifty-five days after dose initiation)
1 | CC[C@@]1(O)C(=O)OCc2c1cc1n(c2=O)Cc2cc3ccccc3nc2-1 [Camptothecin] | 16 nM | 13 nM | 126 nM | 40 nM | 160 nM | 160 nM | 147 mL/min/kg | 1.7 h |  |  |  |  | 
2 | CC[C@@]1(O)C(=O)OCc2c1cc1n(c2=O)Cc2cc3cc(O)ccc3nc2-1 [Example 10-HO-CPT, 10-hydroxycamptothecin] | 11 nM | 10 nM | 112 nM | 27 nM | 62 nM | 356 nM |  |  |  |  |  |  | 
3 | CCc1c2c(nc3ccc(OC(=O)N4CCC(N5CCCCC5)CC4)cc13)-c1cc3c(c(=O)n1C2)COC(=O)[C@]3(O)CC [Irinotecan, irinotecan hydrochloride] | 5010 nM | 3980 nM | 12600 nM | 7900 nM |  |  |  |  | 1.43 h | 0/10 | 14 days | 52 % T/C | 1637 mm^3
